Test systems include COLO 205 colon; NCI-H23 lung; HCC-2998 colon; OVCAR-4 ovarian; LOX IMVI melanoma; MALME-3M melanoma; HCT-116 colon; PC-3 prostate; MDA-MB-231 breast; OVCAR-5 ovarian.
Common to all, as to assay: NCI anticancer screen, dose series, 48 h

Several values for one entry are separate records, joined by “and”; a condition that tells them apart may be missing. Equal values may be shown once.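 These data come from cells grown in 96-well plates and exposed to compound for 48 hours at five concentrations. Here, GI50 denotes the concentration required for 50% inhibition of growth. The concentration for full growth arrest is given as TGI.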

With `COc1cc(OC)c(NC(=O)c2cc3ccccc3cc2O)cc1Cl`, the GI50 in the assay with COLO 205 colon is 3.91 µM; in the assay on NCI-H23 lung, 2.38 µM; in the assay with HCC-2998 colon it was 3.73 µM; with OVCAR-4 ovarian, 3 µM; in the assay on LOX IMVI melanoma, 2.69 µM; in the assay with MALME-3M melanoma, 1.89 µM. Moreover, the GI50 with HCT-116 colon was 2.91 µM; in the assay on PC-3 prostate, 2.13 µM; in the assay on MDA-MB-231 breast, 1.78 µM; in the assay on OVCAR-5 ovarian, 4.7 µM. The TGI with COLO 205 colon was 14.5 µM; with NCI-H23 lung, 7.61 µM; in the assay with HCC-2998 colon it was 13.8 µM; in the assay on OVCAR-4 ovarian, over 100 µM; in the assay on LOX IMVI melanoma, 9.37 µM; with MALME-3M melanoma, 6.04 µM. Further, the TGI is 10.1 µM with HCT-116 colon, 8.02 µM in the assay with PC-3 prostate, 4.78 µM in the assay on MDA-MB-231 breast and 34.5 µM with OVCAR-5 ovarian.

As for `CC1=C([Te]c2ccc(O)cc2)C(=O)c2ccccc2C1=O`, the GI50 in the assay on COLO 205 colon is 0.383 µM; in the assay on NCI-H23 lung it was 1.84 µM; in the assay with HCC-2998 colon it was 2.88 µM; in the assay with OVCAR-4 ovarian, 1.95 µM; in the assay on LOX IMVI melanoma, 1.69 µM; in the assay on MALME-3M melanoma, 2.79 µM. In addition, the GI50 with HCT-116 colon was 0.715 µM; in the assay on PC-3 prostate it was 1.53 µM; in the assay with MDA-MB-231 breast it was 1.89 µM; with OVCAR-5 ovarian, 2.44 µM. Moreover, the TGI in the assay with COLO 205 colon was 1.4 µM; in the assay on NCI-H23 lung, 5.84 µM; in the assay with HCC-2998 colon it was 9.66 µM; with OVCAR-4 ovarian it was 4.38 µM; with LOX IMVI melanoma it was 4.35 µM; in the assay on MALME-3M melanoma, 7.12 µM. Moreover, the TGI is 2.05 µM in the assay on HCT-116 colon, 5.11 µM in the assay on PC-3 prostate, 5.4 µM in the assay with MDA-MB-231 breast and 7.75 µM in the assay with OVCAR-5 ovarian.

As for `COc1cc(-c2nn(-c3cccc(NC(=O)c4ccc(N5CCOCC5)c(C(F)(F)F)c4)c3)cc2-c2ccncc2)ccc1Cl`, the GI50 in the assay with COLO 205 colon is 0.446 µM; in the assay on NCI-H23 lung it was 0.826 µM; with HCC-2998 colon, 1.5 µM; in the assay on OVCAR-4 ovarian it was 1.51 µM; in the assay with LOX IMVI melanoma, 0.371 µM; in the assay with MALME-3M melanoma, 0.0769 µM. The GI50 was 0.299 µM in the assay with HCT-116 colon, 0.166 µM with PC-3 prostate, 0.384 µM in the assay with MDA-MB-231 breast and 1.2 µM in the assay with OVCAR-5 ovarian. The TGI in the assay on COLO 205 colon is 1.69 µM; with NCI-H23 lung it was 34.2 µM; in the assay on HCC-2998 colon it was 7 µM; with OVCAR-4 ovarian it was over 100 µM; in the assay on LOX IMVI melanoma, 6.2 µM; in the assay with MALME-3M melanoma it was 1.54 µM. In addition, the TGI is over 32.9 µM with HCT-116 colon, 5.22 µM in the assay on PC-3 prostate, 3.54 µM in the assay on MDA-MB-231 breast and over 86.4 µM in the assay on OVCAR-5 ovarian.

For `COc1ccc2c(c1OC)OCC(CN(C)C)C2=O` (stereo not given), the TGI amounted to 21.6 µM with COLO 205 colon; 35.8 µM in the assay on NCI-H23 lung; 33.7 µM in the assay on HCC-2998 colon; 60.5 µM in the assay on OVCAR-4 ovarian; 31.2 µM with LOX IMVI melanoma; 34.8 µM in the assay with MALME-3M melanoma. The TGI is 31.4 µM in the assay on HCT-116 colon, 34.6 µM in the assay on PC-3 prostate, 34.6 µM in the assay with MDA-MB-231 breast and 35.7 µM with OVCAR-5 ovarian.

Turning to `C[C@H]1[C@H]2[C@H]3CC[C@@H]4[C@@]5(C)C/C(=C/c6cccnc6)C(=O)C(C)(C)[C@@H]5CC[C@@]4(C)[C@]3(C)CC[C@]23CO[C@]1(C)[C@@H](C(=O)/C=C\c1cccnc1)C3`, the GI50 in the assay with COLO 205 colon was 1.43 µM; in the assay with NCI-H23 lung it was 1.03 µM; in the assay with HCC-2998 colon, 0.868 µM; with OVCAR-4 ovarian, 1.5 µM; in the assay on LOX IMVI melanoma, 0.783 µM; in the assay with MALME-3M melanoma it was 0.849 µM. Moreover, the GI50 with HCT-116 colon was 0.385 µM; with PC-3 prostate, 0.498 µM; in the assay with MDA-MB-231 breast, 1.27 µM; in the assay on OVCAR-5 ovarian, 1.46 µM. Also, the TGI in the assay on COLO 205 colon was 4.53 µM; in the assay on NCI-H23 lung, 2.48 µM; in the assay with HCC-2998 colon, 1.67 µM; in the assay on OVCAR-4 ovarian, over 50 µM; in the assay with LOX IMVI melanoma, 1.57 µM; in the assay on MALME-3M melanoma, 1.91 µM. Also, the TGI in the assay on HCT-116 colon is 1.28 µM; in the assay with PC-3 prostate it was 3.37 µM; with MDA-MB-231 breast it was 8.01 µM; with OVCAR-5 ovarian, 4.43 µM.

Take `CCc1cc2c(cc1N1CCC(N3CCOCC3)CC1)C(C)(C)c1[nH]c3cc(C#N)ccc3c1C2=O`: the GI50 in the assay with COLO 205 colon is 1.95 µM and 2.21 µM and 1.64 µM; with NCI-H23 lung, 2.8 µM and 3.45 µM and 5.94 µM; in the assay on HCC-2998 colon, 4.33 µM and 3.73 µM; in the assay with OVCAR-4 ovarian, 0.648 µM and 1.35 µM and 1.63 µM; in the assay on LOX IMVI melanoma, 1.63 µM and 1.73 µM and 1.52 µM; in the assay with MALME-3M melanoma it was 1.41 µM and 1.4 µM and 2.3 µM. For the same molecule, the GI50 was 1.76 µM and 1.79 µM and 3.1 µM with HCT-116 colon; 0.921 µM and 0.653 µM and 0.738 µM in the assay on PC-3 prostate; 1.53 µM and 1.71 µM and 2.11 µM in the assay on MDA-MB-231 breast; 1.52 µM and 1.29 µM and 1.93 µM in the assay with OVCAR-5 ovarian. The TGI was 6.37 µM and 7.16 µM and 8.45 µM in the assay with COLO 205 colon; 38.6 µM and 20 µM and > 10 µM with NCI-H23 lung; > 43.7 µM and 17.8 µM and > 10 µM in the assay with HCC-2998 colon; 2.26 µM and 2.86 µM and 3.59 µM in the assay on OVCAR-4 ovarian; 6.38 µM and 5.47 µM and 4.19 µM in the assay with LOX IMVI melanoma; 5.62 µM and 5.27 µM and > 10 µM in the assay on MALME-3M melanoma. Besides, the TGI in the assay with HCT-116 colon was 3.85 µM and 3.6 µM and > 10 µM; in the assay on PC-3 prostate, > 36.1 µM and 14.6 µM and > 10 µM; in the assay on MDA-MB-231 breast, 5.21 µM and 4.65 µM and 6.37 µM; in the assay with OVCAR-5 ovarian it was 19.3 µM and 9.3 µM and > 10 µM.

With `CCc1ccc2c(c1)N(CCO)C1=C(C(=O)OC1)C2c1cccc(Cl)c1` (stereo not given), the GI50 with COLO 205 colon was 0.522 µM; in the assay on NCI-H23 lung, 0.923 µM; with HCC-2998 colon, 1.35 µM; with OVCAR-4 ovarian, 0.834 µM; in the assay on LOX IMVI melanoma, 0.684 µM; in the assay with MALME-3M melanoma it was 2.82 µM. Besides, the GI50 is 0.498 µM with HCT-116 colon, 0.687 µM in the assay with PC-3 prostate, 1.66 µM in the assay on MDA-MB-231 breast and 4.61 µM with OVCAR-5 ovarian. Moreover, the TGI in the assay with COLO 205 colon is 2.63 µM; with NCI-H23 lung it was 20.9 µM; in the assay on HCC-2998 colon, 9.25 µM; with OVCAR-4 ovarian, 28.8 µM; with LOX IMVI melanoma, 17.7 µM; in the assay on MALME-3M melanoma, 27.4 µM. Moreover, the TGI in the assay on HCT-116 colon was 13.1 µM; in the assay with PC-3 prostate it was 23.4 µM; in the assay on MDA-MB-231 breast, 15.3 µM; with OVCAR-5 ovarian, 23.4 µM.

For the molecule `O=c1c2c3c(sc2nc(N/N=C/c2ccc(Br)cc2)n1Cc1ccccc1)CCCC3`, the GI50 in the assay with COLO 205 colon was 5.88 µM; in the assay on NCI-H23 lung it was over 100 µM; in the assay on HCC-2998 colon it was over 100 µM; in the assay with OVCAR-4 ovarian, 9.67 µM; in the assay with LOX IMVI melanoma, 19.3 µM; in the assay with MALME-3M melanoma, 42.7 µM. Further, the GI50 with HCT-116 colon was 5.66 µM; with PC-3 prostate, 6.64 µM; with MDA-MB-231 breast, 48 µM; with OVCAR-5 ovarian, over 100 µM. The TGI in the assay with COLO 205 colon, with NCI-H23 lung, in the assay with HCC-2998 colon, in the assay on OVCAR-4 ovarian, with LOX IMVI melanoma and in the assay with MALME-3M melanoma was over 100 µM in each case. The TGI with HCT-116 colon, with PC-3 prostate, with MDA-MB-231 breast and with OVCAR-5 ovarian was over 100 µM throughout.

(Values after PubChem BioAssay (NCI).)
